The results in this text go back to patent publication US6046231A, “Use of 4'-bromoflavone in a cancer chemopreventative composition and method” (The Board of Trustees of the University of Illinois, priority 1999, dated 2000).

The test system of assay [1] is quinone reductase (QR), Hepa 1c1c7 cells. In words: Quinone reductase (QR) induction in Hepa 1c1c7 cells. In kind it is cell-based, murine. Particulars: for CI, chemoprevention index (IC50/CD): 2880 min. An excerpt: This test was used because the specific activity of QR rises concomitantly with other phase II enzymes in many animal tissues in response to various chemopreventive agents. The study included natural and synthetic B-ring substituted flavones, as well as biosynthetic precursor chalcones and flavanones.
Determination of Quinone Reductase Activity in Cell Cultures. To determine the potency of inducers, Hepa 1c1c7 murine hepatoma cells as described in the Gerhauser publication were placed in 96-well plates at a density of 1×10^4 cells/ml in 200 μl of medium. After a preincubation period of 24 hr, the media were decanted and 190 μl fresh media were added to each well. Ten (10) μl test agents dissolved in 10% DMSO (final concentration of DMSO is 0.5%) with a serial 2-fold dilutions were introduced to each well, and the plates were incubated for an additional 48 hours. Specific QR activity was determined by measuring the NADPH-dependent menadiol-mediated reduction of 3-(4, 5-dimethylthiazo-2-yl)-2,5-diphenyltetrazolium bromide to blue formazan formed per mg protein per minute. Protein was determined in an identical set of test plates by staining with crystal violet. Hepa 1c1c7 cells retain many characteristics of normal issues, particularly the capacity for carcinogen activation and metabolism. They are amenable to precise control of environmental, nutritional, and hormonal factors. […] Induction of QR activity was calculated by comparing the QR specific activity of agent-treated cells with that of solvent-treated cells, and a plot of ratio was generated. CD represents the concentration required to double QR induction. Chemopreventive index (CI) is an indexing value generated by comparing CD with IC50 (concentration for 50% inhibition of cell viability) values.
Induction of Quinone Reductase in Hepa 1c1c7 Cells. […] Modification of the B-ring of chalcones, flavanones, and flavones was hypothesized to induce torsion of the B-ring, and, therefor, simulate out-of-plane distortions characteristic of polycyclic aromatic hydrocarbons, such as DMBA. Induction of QR activity was calculated by comparing the QR specific activity of agent-treated cells with the QR specific activity of solvent-treated cells, and a plot of ratios was generated. CD represents the concentration required for a double fold of induction. CI (Chemopreventive Index) is a value obtained by comparing CD with IC50 (concentration for 50% inhibition of cell viability in […]).

The subject of the next assay is Hepa 1c1c7 cells. In words: Hepa 1c1c7 cell viability (cytotoxicity). Particulars: Mus musculus. It counts as cell-based, murine.
Setting [2] is: Mus musculus, Hepa-1c1c7, 48 h, Hepa 1c1c7 cells, 48 h, read-out: CD, concentration to double the specific activity of QR.
Setting [3] is: Hepa-1c1c7, Hepa 1c1c7 cells, read-out: IC50, concentration for 50% inhibition of cell viability.
The mark [4] stands for this setting: Hepa 1c1c7 cells, 48 h, read-out: CD, concentration to double the specific activity of QR.
Setting [5] is: Mus musculus, Hepa-1c1c7, 48 h, read-out: CD, concentration to double the specific activity of QR, Hepa 1c1c7 cells, 48 h.
[6] abbreviates: Hepa-1c1c7, read-out: IC50, concentration for 50% inhibition of cell viability.

Where two headings read alike, the source gives them in different places. A value given as a limit tells only on which side of the number the result lay.

In assay [1] (Hepa 1c1c7 cells), `O=C(/C=C/c1cccc(Br)c1)c1ccccc1O` [3-Bromo-2'-hydroxychalcone] yielded a Cq of 8.2 µM. Moreover, the “CI, chemoprevention index (IC50/CD)” value in assay [1] is 16. Further, the EC (2-fold) in assay [1] (setting [2]) was found to be 1.3 µM. In addition, the IC50 with Hepa 1c1c7 cells (setting [3]) stood at 21 µM.

With `COc1ccccc1/C=C/C(=O)c1ccccc1O` [2'-Hydroxy-2-methoxychalcone], the Cq in assay [1] (Hepa 1c1c7 cells) came to 1.8 µM. The “CI, chemoprevention index (IC50/CD)” value in assay [1] was found to be 55. For the same compound, the EC (2-fold) in assay [1] (setting [2]) was 0.31 µM. Further, the IC50 with Hepa 1c1c7 cells (setting [3]) worked out at 17 µM.

`O=c1cc(-c2ccc(Cl)cc2)oc2ccccc12` [4'-Chloroflavone]: the Cq in assay [1] (Hepa 1c1c7 cells) is 0.66 µM. The EC (2-fold) stood at 0.02 µM in assay [1] (setting [4]) and 0.016 µM in assay [1] (setting [5]). Further, the “CI, chemoprevention index (IC50/CD)” value in assay [1] is on record as more than 5000. The IC50 in the assay on Hepa 1c1c7 cells (setting [6]) was more than 78 µM.

In turn, `O=c1cc(-c2cccc(Br)c2)oc2ccccc12` [3'-Bromoflavone] gave a Cq in assay [1] (Hepa 1c1c7 cells) of 4.4 µM. Moreover, in assay [1], the “CI, chemoprevention index (IC50/CD)” value is 32. The EC (2-fold) in assay [1] (setting [2]) is 0.1 µM. The IC50 in the assay on Hepa 1c1c7 cells (setting [3]) came to 3.2 µM.

With `O=C(/C=C/c1ccccc1Br)c1ccccc1O` [2-Bromo-2'-hydroxychalcone], the Cq in assay [1] (Hepa 1c1c7 cells) is 2.0 µM. Besides, the “CI, chemoprevention index (IC50/CD)” value in assay [1] is listed as 21. For the same compound, the EC (2-fold) in assay [1] (setting [5]) amounted to 0.53 µM. The IC50 with Hepa 1c1c7 cells (setting [6]) stood at 11 µM.

In the case of `COc1ccccc1-c1cc(=O)c2ccccc2o1` [2'-methoxyflavone], the EC (2-fold) in assay [1] (setting [2]) lay within 0.01 to 1 µM.

In turn, `Cc1ccccc1/C=C/C(=O)c1ccccc1O` [2'-Hydroxy-2-methylchalcone] came in with a Cq in assay [1] (Hepa 1c1c7 cells) of 9.0 µM. In assay [1], the “CI, chemoprevention index (IC50/CD)” value was determined as 54. In addition, the EC (2-fold) in assay [1] (setting [2]) stood at 0.67 µM. In addition, in the assay on Hepa 1c1c7 cells (setting [3]), the IC50 turned out to be 36 µM.

With `O=c1cc(-c2cccc(Cl)c2)oc2ccccc12` [3'-Chloroflavone], the Cq entry in assay [1] (Hepa 1c1c7 cells) is listed as “toxic”. In addition, the EC (2-fold) in assay [1] (Hepa 1c1c7 cells, 48 h, listed as 3'-chloroflavone, read-out: CD, concentration to double the specific activity of QR) is recorded as 0.27 µM; in assay [1] (setting [4]), less than 0.58 µM. Moreover, in assay [1], the “CI, chemoprevention index (IC50/CD)” value is more than 40. Besides, the IC50 in the assay with Hepa 1c1c7 cells (setting [6]) is 23 µM.

Regarding `O=C(/C=C/c1cccc(C(F)(F)F)c1)c1ccccc1O` [2'-Hydroxy-3-trifluoromethylchalcone], the Cq in assay [1] (Hepa 1c1c7 cells) was determined as 0.55 µM. For the same compound, the “CI, chemoprevention index (IC50/CD)” value in assay [1] is reported as more than 23. For the same compound, the EC (2-fold) in assay [1] (setting [2]) is less than 0.55 µM. Also, the IC50 in the assay on Hepa 1c1c7 cells (setting [3]) was found to be 12.8 µM.

In assay [1] (Hepa 1c1c7 cells), `Cc1ccccc1C1CC(=O)c2ccccc2O1` (centres unmarked) [2'-Methylflavanone] displayed a Cq of 6.8 µM. Further, the EC (2-fold) is 1.00 µM in assay [1] (setting [4]) and 1 µM in assay [1] (setting [2]). Moreover, the “CI, chemoprevention index (IC50/CD)” value in assay [1] came out at 81. For the same compound, the IC50 with Hepa 1c1c7 cells (setting [3]) was 81 µM.

As to `O=C(/C=C/c1ccccc1)c1ccccc1` [Chalcone, reference compound], the IC50 in the assay on Hepa 1c1c7 cells (setting [3]) turned out to be 33 µM.

As for `O=C1CC(c2ccc(Br)cc2)Oc2ccccc21` (centres unmarked) [4'-Bromoflavanone], the Cq in assay [1] (Hepa 1c1c7 cells) stood at 11 µM. Also, the “CI, chemoprevention index (IC50/CD)” value in assay [1] is recorded as 27. Further, the EC (2-fold) in assay [1] (setting [2]) was found to be 2.3 µM. For the same compound, in the assay with Hepa 1c1c7 cells (setting [3]), the IC50 worked out at 63 µM.

Regarding `O=c1cc(-c2ccccc2F)oc2ccccc12` [2'-Fluoroflavone], the Cq in assay [1] (Hepa 1c1c7 cells) came to 10 µM. In addition, the EC (2-fold) in assay [1] (setting [4]) worked out at 0.80 µM; in assay [1] (setting [2]) it was 0.8 µM. In addition, the “CI, chemoprevention index (IC50/CD)” value in assay [1] is reported as 104. In addition, the IC50 in the assay on Hepa 1c1c7 cells (setting [3]) is more than 83 µM.

The compound `O=C(/C=C/c1ccc(C(F)(F)F)cc1)c1ccccc1O` [2'-Hydroxy-4-trifluoromethylchalcone] yielded a Cq in assay [1] (Hepa 1c1c7 cells) of 1 µM. Moreover, the “CI, chemoprevention index (IC50/CD)” value in assay [1] is on record as more than 100. Besides, in assay [1] (setting [2]), the EC (2-fold) is less than 0.55 µM. Also, the IC50 in the assay with Hepa 1c1c7 cells (setting [3]) was determined as 55 µM.

`O=C1CC(c2cccc3ccccc23)Oc2ccccc21` (centres unmarked) displayed a Cq in assay [1] (Hepa 1c1c7 cells) of 8.6 µM. Further, the “CI, chemoprevention index (IC50/CD)” value in assay [1] is reported as 24. In assay [1] (setting [2]), the EC (2-fold) was 1.8 µM. Besides, the IC50 in the assay with Hepa 1c1c7 cells (setting [3]) was 43 µM.

As to `COc1ccccc1C1CC(=O)c2ccccc2O1` (centres unmarked) [2'-Methoxyflavanone], the Cq in assay [1] (Hepa 1c1c7 cells) worked out at 6.9 µM. In addition, in assay [1], the “CI, chemoprevention index (IC50/CD)” value is more than 125. For the same compound, the EC (2-fold) in assay [1] (setting [2]) was found to be 0.63 µM. Besides, in the assay on Hepa 1c1c7 cells (setting [3]), the IC50 was more than 79 µM.
